{"source": "patent US9868695B2", "about": "(priority 2014, dated 2018)", "test_system": "microtubules in HCT-116 cells", "experiment": "Effect of compounds on microtubules, confocal microscopy", "type": "cell-based, Human", "details": "100 nM, 24 h, anti-α-tubulin staining, compared to control", "protocol": "For detection of tubulins, HCT-116 cells (1×10^5 cells/well) were seeded on to 18 mm square cover slips in six well plates in complete medium. […] After the treatment period, cells were fixed in 4% paraformaldehyde for 10 min at room temperature and permeabilized using 0.5% Triton-X in PBS for 5 min. The cells were blocked with 10% goat serum for 20 min at room temperature. Microtubules were detected with a monoclonal α-tubulin antibody (Sigma, Catalogue number: T9026) diluted 1:100 in 0.1% Triton X-100 in PBS for 1 h at room temperature and Alexa Fluor 488 conjugated secondary antibody (Invitrogen) diluted 1:500 in PBS for 1 h at room temperature. Cells were then washed three times in PBS and stained with 4′,6-diamidino-2-phenylindole (DAPI 1 μg/ml in PBS). The cover slips were mounted over glass slides and cells were imaged by a laser scanning confocal microscope (Olympus Fluoview FV1000). The promising candidates identified through P-gp screening and antiproliferative screening were further studied for tubulin polymerization inhibition activity."}
{"smiles": "COc1cc2c(c(OC)c1OC)-c1ccc(Nc3ccc(Cl)c(C(F)(F)F)c3)c(=O)cc1[C@@H](NC(C)=O)CC2", "note": "[Compound 1g, N-[(7S)-1,2,3-Trimethoxy-9-oxo-10-[3-(trifluoromethyl)-4-chloro-phenylamino]-5,6,7,9-tetrahydrobenzo[a]heptalen-7-yl]acetamide]", "values": [{"measurement": "disruption of microtubule assembly", "result": "remarkable disruption and loss of microtubules"}]}
